Source: publication PMC10739871, “Structural insights into the regulation, ligand recognition, and oligomerization of bacterial STING” (Nature Communications, 2023)
Several values for one entry are separate records, joined by “and”; a condition that tells them apart may be missing. Identical values can stand only once.

Experiments:
RiSTING [1] = test: ITC binding of cGG to RiSTING; parameters: species or system Riemerella anatipestifer
Method: ITC experiments were performed at 25 °C using nano-ITC (TA Instruments). Purified RiSTING and ElSTING were exchanged into assay buffer containing 20 mM Tris pH 8.0, 150 mM NaCl. 10 mM stock of cGG (Item No. 17144, Cayman Chemical) and cAA (Item No. 17753, Cayman Chemical) were prepared by dissolving in the same buffer. 20 injections of ligand (0.9-1.2 mM) were sequentially titrated to tested STING protein solution (30-100 μM) with a stirring speed of 300 rpm. Data were fit to “independent” model to derive ΔH, ΔS, and Kd values using NanoAnalyze v3.12.5 (TA Instruments).

RiSTING [2] = test: Dynamic light scattering of RiSTING with or without cGG; parameters: species or system Riemerella anatipestifer; settings: two molar excesses of cGG; 84% of particles; 9.0 nm without cGG
Method: The DLS experiments were performed using Zetasizer Nano ZS90 (Malvern instruments). Briefly, protein samples containing 1 mg/ml RiSTING in the presence or absence of 2-fold molar excess of cGG were prepared and degassed. Polydispersity index (PDI) and globule size were examined at 25 °C.

MyTIR-STING = test: NAD+ cleavage activity assay, MyTIR-STING (control); type: biochemical; settings: 1 μM cGG
Method: The NAD^+ cleavage activity of the N-terminal TIR domain of full-length TIR-STING proteins were accessed using the previously described protocol. Briefly, 100 μl reaction mixture containing ligand (cGG or cAA) at the indicated concentration and 500 μM ε-NAD (Product No. N2630, Sigma-Aldrich) in the assay buffer (20 mM HEPES pH 7.5, 100 mM KCl) was pre-incubated at room temperature. Tested TIR-STING protein (0.5–1 μM) was then added to start the reaction. The fluorescence signal was continuously monitored for 1 hour at an emission wavelength of 410 nm with excitation at 300 nm using Synergy H1 microplate reader (BioTek). The changes of relative fluorescence units at different time points were recorded.

[3] = target: oligomerization mutant ElTIR-STING^D175R,S179R (Epilithonimonas lactis DSM 19921); test: SEC; gel-filtration analysis of full-length ElTIR-STING in the absence of cAA
[4] = target: oligomerization mutant ElTIR-STING^D175R,S179R (Epilithonimonas lactis DSM 19921); test: SEC; gel-filtration analysis of full-length ElTIR-STING in the presence of cAA at 2-fold molar excess

Compound | binding affinity (in words) (RiSTING [1]) | Kd (RiSTING [1]; 25 °C, 20 mM Tris pH 8.0, 150 mM NaCl, read-out: dissociation constant (Kd)) [nM] | major particle size of RiSTING (RiSTING [2]) [nm] | ΔRFU after 10 mins, Average (MyTIR-STING; n = 3) [RFU] | ΔRFU after 10 mins (single replicates) (MyTIR-STING; positive control) | stoichiometry N [3] | stoichiometry N [4]
Nc1nc2c(ncn2[C@@H]2O[C@@H]3COP(=O)(O)O[C@H]4[C@@H](O)[C@H](n5cnc6c(=O)[nH]c(N)nc65)O[C@@H]4COP(=O)(O)O[C@H]3[C@H]2O)c(=O)[nH]1 [cGG, 3′3′-cyclic di-GMP] | nanomolar affinity | 0.1 | 40.6 | 31574 | 32209 RFU and 31707 RFU and 30806 RFU |  | 
oligomerization mutant ElTIR-STING^D175R,S179R (natural protein) |  |  |  |  |  | 6 and 2 | 6 and 2
